Measurements as given in paper PMC3969020 (Biochemistry, 2014).

What was measured:
Type in all cases: biochemical
[1] = target: T1, Horse liver alcohol dehydrogenase (ADH), E isoenzyme (Equus caballus, UniProt P00327); assay: product inhibition against NAD+
[2] = target: T2, Horse liver alcohol dehydrogenase (ADH), E isoenzyme (Equus caballus, UniProt P00327, V208A); assay: product inhibition against NAD+
[3] = target: T2, Horse liver alcohol dehydrogenase (ADH), E isoenzyme; assay: X-ray crystal structure, […] Å
[4] = target: T1, Horse liver alcohol dehydrogenase (ADH), E isoenzyme; assay: initial velocity and product inhibition kinetics

T1 sequence (P00327 2-375): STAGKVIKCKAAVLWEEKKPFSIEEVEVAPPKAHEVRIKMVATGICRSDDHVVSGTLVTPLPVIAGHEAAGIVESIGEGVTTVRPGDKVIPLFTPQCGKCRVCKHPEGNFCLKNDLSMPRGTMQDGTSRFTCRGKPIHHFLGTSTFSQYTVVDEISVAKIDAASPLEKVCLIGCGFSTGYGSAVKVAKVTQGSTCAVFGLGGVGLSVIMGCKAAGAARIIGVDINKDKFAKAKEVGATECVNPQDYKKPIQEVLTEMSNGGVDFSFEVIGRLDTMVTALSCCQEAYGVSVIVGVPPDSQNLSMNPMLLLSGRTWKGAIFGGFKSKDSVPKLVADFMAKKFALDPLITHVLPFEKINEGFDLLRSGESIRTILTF
T2 sequence (P00327 2-375 V208A): as the sequence (P00327 2-375) above, with V207A counted along it

SMILES	Ki [1]	Ki [2]	Ki [3]	Ki [4]
NC(=O)C1=CN([C@@H]2O[C@H](COP(=O)(O)OP(=O)(O)OC[C@H]3O[C@@H](n4cnc5c(N)ncnc54)[C@H](O)[C@@H]3O)[C@@H](O)[C@H]2O)C=CC1 [NADH]	310 ± 20 nM	390 ± 10 nM	–	–
NC(=O)c1ccc[n+]([C@@H]2O[C@H](COP(=O)([O-])OP(=O)(O)OC[C@H]3O[C@@H](n4cnc5c(N)ncnc54)[C@H](O)[C@@H]3O)[C@@H](O)[C@H]2O)c1 [NAD^+]	–	–	59 ± 5 µM	20 ± 5 µM
